Reference: patent US12679848B2, “Plasma kallikrein inhibitors” (Merck Sharp & Dohme LLC, priority 2020, dated 2026)
pIC50: −log10 of the molar value.

Assays:
Human plasma kallikrein = target: T1, Human plasma kallikrein (Homo sapiens, UniProt P03952); experiment: Plasma Kallikrein Assay; type: biochemical; settings: purified Human plasma kallikrein 0.5 nM, substrate Acetyl-K-P-R-AFC, HEPES pH 7.4; read-out: PKal IC50
T1 construct: yields a heavy chain (371 amino acids) and a light chain (248 amino acids); The active site of plasma kallikrein is contained in the light chain; purchased Enzyme Research Laboratories
In short: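 Purified human plasma kallikrein at 0.5 nM final with substrate Acetyl-K-P-R-AFC at […], in 50 mM HEPES pH 7.4, 150 mM NaCl, 5 mM CaCl2, 0.1% PEG 8000, at rt or 37° C after enzyme-inhibitor equilibration. IC50 from four-parameter logistic fit of fluorescence rate; Ki via Cheng-Prusoff.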

human factor XIa = human factor XIa (Homo sapiens, UniProt P03951); experiment: Factor XIa Assay; type: biochemical; settings: human factor XIa 0.04 nM, substrate GPR-AFC, 30 min pre-incubation, 25° C., pH 7.4; read-out: FXIa IC50
human factor XIa, sequence (P03951 388-625 limits assumed): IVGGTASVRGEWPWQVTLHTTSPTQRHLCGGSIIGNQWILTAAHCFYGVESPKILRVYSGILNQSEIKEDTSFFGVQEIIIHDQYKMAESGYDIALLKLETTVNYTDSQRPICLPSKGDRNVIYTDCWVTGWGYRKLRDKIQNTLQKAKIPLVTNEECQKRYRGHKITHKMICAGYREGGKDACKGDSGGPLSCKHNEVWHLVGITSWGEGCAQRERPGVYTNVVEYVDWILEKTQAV
human factor XIa, sequence (P03951 19-387 partner limits assumed): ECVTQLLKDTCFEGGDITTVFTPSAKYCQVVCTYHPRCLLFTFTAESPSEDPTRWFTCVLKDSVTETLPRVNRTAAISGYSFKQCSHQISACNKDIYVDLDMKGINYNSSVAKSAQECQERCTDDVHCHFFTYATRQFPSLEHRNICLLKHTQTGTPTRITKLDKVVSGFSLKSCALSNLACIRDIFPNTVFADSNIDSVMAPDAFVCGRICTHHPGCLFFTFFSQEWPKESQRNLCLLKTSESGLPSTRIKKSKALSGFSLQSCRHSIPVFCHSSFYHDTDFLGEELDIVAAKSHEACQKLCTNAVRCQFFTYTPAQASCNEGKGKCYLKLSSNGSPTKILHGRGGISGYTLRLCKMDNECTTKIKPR

T1 sequence (P03952 391-638 limits assumed): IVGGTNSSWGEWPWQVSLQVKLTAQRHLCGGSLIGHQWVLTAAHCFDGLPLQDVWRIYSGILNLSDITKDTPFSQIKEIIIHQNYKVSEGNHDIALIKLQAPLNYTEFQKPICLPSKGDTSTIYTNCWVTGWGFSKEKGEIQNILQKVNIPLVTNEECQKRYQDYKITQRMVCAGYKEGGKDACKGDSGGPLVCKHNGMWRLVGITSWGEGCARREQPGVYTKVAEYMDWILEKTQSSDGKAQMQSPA
T1 sequence (P03952 20-390 partner limits assumed): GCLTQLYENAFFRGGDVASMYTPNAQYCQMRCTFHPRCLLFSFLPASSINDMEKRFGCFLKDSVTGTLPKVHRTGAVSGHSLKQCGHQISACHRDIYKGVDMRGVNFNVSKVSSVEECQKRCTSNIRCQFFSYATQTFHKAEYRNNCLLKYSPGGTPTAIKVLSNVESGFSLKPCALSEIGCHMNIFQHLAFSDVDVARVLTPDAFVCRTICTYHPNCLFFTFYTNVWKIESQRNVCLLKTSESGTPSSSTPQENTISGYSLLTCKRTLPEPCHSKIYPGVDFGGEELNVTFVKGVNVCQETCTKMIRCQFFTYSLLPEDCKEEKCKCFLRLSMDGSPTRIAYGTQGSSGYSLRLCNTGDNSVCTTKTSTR

Row | Structure (SMILES) | pIC50 (Human plasma kallikrein) | pIC50 (human factor XIa)
1 | CC1(C)CN(C(=O)c2cnn(-c3ccccc3)c2N)C[C@]2(C1)OC(=O)Nc1ccc(Cl)c(F)c12 [Example 69, (R)-1'-(5-Amino-1-phenyl-1H-pyrazole-4-carbonyl)-6-chloro-5-fluoro-5',5'-dimethylspiro[benzo[d][1,3]oxazine-4,3'-piperidin]-2(1H)-one] | 7.38 | 5.34
2 | CCOC(=O)c1ccc(C)c(-n2ncc(C(=O)N3CCC[C@@]4(C3)OC(=O)Nc3ccc(Cl)c(F)c34)c2N)c1 [Example 70, Ethyl (R)-3-(5-amino-4-(6-chloro-5-fluoro-2-oxo-1,2-dihydrospiro[benzo[d][1,3]oxazine-4,3'-piperidine]-1'-carbonyl)-1H-pyrazol-1-y1)-4-methylbenzoate] | 7.87 | 5.94
3 | CC(=O)Nc1cccc(-n2ncc(C(=O)N3CCC[C@@]4(C3)OC(=O)Nc3ccc(Cl)c(F)c34)c2N)c1 [Example 71, (R)-N-(3-(5-Amino-4-(6-chloro-5-fluoro-2-oxo-1,2-dihydrospiro[benzo[d][1,3]oxazine-4,3'-piperidine]-1'-carbonyl)-1H-pyrazol-1-yl)phenyl)acetamide] | 7.44 | 5.39
4 | Nc1c(C(=O)N2CCC[C@@]3(C2)OC(=O)Nc2ccc(Cl)c(F)c23)cnn1-c1ccc(N2CCOC2=O)cc1 [Example 75, (R)-1'-(5-Amino-1-(4-(2-oxooxazolidin-3-yl)phenyl)-1H-pyrazole-4-carbonyl)-6-chloro-5-fluorospiro[benzo[d][1,3]oxazine-4,3'-piperidin]-2(1H)-one] | 7.29 | 5.33
5 | Nc1c(C(=O)N2CCC[C@@]3(C2)OC(=O)Nc2ccc(Cl)c(F)c23)cnn1-c1cc(F)ccc1F [Example 76, (R)-1'-(5-Amino-1-(2,5-difluorophenyl)-1H-pyrazole-4-carbonyl)-6-chloro-5-fluorospiro[benzo[d][1,3]oxazine-4,3'-piperidin]-2(1H)-one] | 7.53 | 5.97
6 | Nc1c(C(=O)N2CCC[C@@]3(C2)OC(=O)Nc2ccc(Cl)c(F)c23)cnn1-c1cc(F)ccc1Cl [Example 78, (R)-1'-(5-Amino-1-(2-chloro-5-fluorophenyl)-1H-pyrazole-4-carbonyl)-6-chloro-5-fluorospiro[benzo[d][1,3]oxazine-4,3'-piperidin]-2(1H)-one] | 7.44 | 6.09
7 | CC(C)c1ccccc1-n1ncc(C(=O)N2CCC[C@@]3(C2)OC(=O)Nc2ccc(Cl)c(F)c23)c1N [Example 81, (R)-1'-(5-Amino-1-(2-isopropylphenyl)-1H-pyrazole-4-carbonyl)-6-chloro-5-fluorospiro[benzo[d][1,3]oxazine-4,3'-piperidin]-2(1H)-one] | 8.26 | 6.45
8 | Nc1c(C(=O)N2CCC[C@@]3(C2)OC(=O)Nc2ccc(Cl)c(F)c23)cnn1-c1ccccc1Cl [Example 82, (R)-1'-(5-Amino-1-(2-chlorophenyl)-1H-pyrazole-4-carbonyl)-6-chloro-5-fluorospiro[benzo[d][1,3]oxazine-4,3'-piperidin]-2(1H)-one] | 7.55 | 6.13
9 | Nc1c(C(=O)N2CCC[C@@]3(C2)OC(=O)Nc2ccc(Cl)c(F)c23)cnn1-c1ccccc1Br [Example 83, (R)-1'-(5-Amino-1-(2-bromophenyl)-1H-pyrazole-4-carbonyl)-6-chloro-5-fluorospiro[benzo[d][1,3]oxazine-4,3'-piperidin]-2(1H)-one] | 7.45 | 6.06
10 | Nc1c(C(=O)N2CCC[C@@]3(C2)OC(=O)Nc2ccc(Cl)c(F)c23)cnn1-c1ccccc1F [Example 84, (R)-1'-(5-Amino-1-(2-fluorophenyl)-1H-pyrazole-4-carbonyl)-6-chloro-5-fluorospiro[benzo[d][1,3]oxazine-4,3'-piperidin]-2(1H)-one] | 7.56 | 6.03

The remaining compounds from weak to strong by pIC50 (Human plasma kallikrein), led by results:

Row | pIC50 (Human plasma kallikrein) | pIC50 (human factor XIa) | Structure (SMILES)
11 | 7.34 | 5.14 | CC(=O)Nc1ccc(-n2ncc(C(=O)N3CCC[C@@]4(C3)OC(=O)Nc3ccc(Cl)c(F)c34)c2N)cc1 [Example 67, (R)-N-(4-(5-Amino-4-(6-chloro-5-fluoro-2-oxo-1,2-dihydrospiro[benzo[d][1,3]oxazine-4,3'-piperidine]-1'-carbonyl)-1H-pyrazol-1-yl)phenyl)acetamide]
12 | 7.34 | 6.19 | Cc1ccc(-n2ncc(C(=O)N3CCC[C@@]4(C3)OC(=O)Nc3ccc(Cl)c(F)c34)c2N)c(C)c1 [Example 86, (R)-1'-(5-Amino-1-(2,4-dimethylphenyl)-1H-pyrazole-4-carbonyl)-6-chloro-5-fluorospiro[benzo[d][1,3]oxazine-4,3'-piperidin]-2(1H)-one]
13 | 7.65 | 6.50 | Nc1c(C(=O)N2CCC[C@@]3(C2)OC(=O)Nc2ccc(Cl)c(F)c23)cnn1-c1ccncc1Cl [Example 73, (R)-1'-(5-Amino-1-(3-chloropyridin-4-y1)-1H-pyrazole-4-carbonyl)-6-chloro-5-fluorospiro[benzo[d][1,3]oxazine-4,3'-piperidin]-2(1H)-one]
14 | 7.76 | 6.40 | Nc1c(C(=O)N2CCC[C@@]3(C2)OC(=O)Nc2ccc(Cl)c(F)c23)cnn1-c1ccccc1C(F)(F)F [Example 77, (R)-1'-(5-Amino-1-(2-(trifluoromethyl)phenyl)-1H-pyrazole-4-carbonyl)-6-chloro-5-fluorospiro[benzo[d][1,3]oxazine-4,3'-piperidin]-2(1H)-one]
15 | 7.87 | 5.83 | Nc1c(C(=O)N2CCC[C@@]3(C2)OC(=O)Nc2ccc(Cl)c(F)c23)cnn1-c1cccc(C(=O)O)c1 [Example 68, (R)-3-(5-Amino-4-(6-chloro-5-fluoro-2-oxo-1,2-dihydrospiro[benzo[d][1,3]oxazine-4,3'-piperidine]-1'-carbonyl)-1H-pyrazol-1-yl)benzoic acid]
16 | 7.94 | 6.49 | CCc1ccccc1-n1ncc(C(=O)N2CCC[C@@]3(C2)OC(=O)Nc2ccc(Cl)c(F)c23)c1N [Example 80, (R)-1'-(5-Amino-1-(2-ethylphenyl)-1H-pyrazole-4-carbonyl)-6-chloro-5-fluorospiro[benzo[d][1,3]oxazine-4,3'-piperidin]-2(1H)-one]
17 | 8.04 | 5.71 | Cc1cccc(-n2ncc(C(=O)N3CCC[C@@]4(C3)OC(=O)Nc3ccc(Cl)c(F)c34)c2N)c1C [Example 85, (R)-1'-(5-Amino-1-(2,3-dimethylphenyl)-1H-pyrazole-4-carbonyl)-6-chloro-5-fluorospiro[benzo[d][1,3]oxazine-4,3'-piperidin]-2(1H)-one]
18 | 8.08 | 6.42 | Nc1c(C(=O)N2CCC[C@@]3(C2)OC(=O)Nc2ccc(Cl)c(F)c23)cnn1-c1ccc(C(=O)O)cc1 [Example 74, (R)-4-(5-Amino-4-(6-chloro-5-fluoro-2-oxo-1,2-dihydrospiro[benzo[d][1,3]oxazine-4,3'-piperidine]-l'-carbonyl)-1H-pyrazol-1-yl)benzoic acid]
19 | 8.24 | 6.42 | COc1ccccc1-n1ncc(C(=O)N2CCC[C@@]3(C2)OC(=O)Nc2ccc(Cl)c(F)c23)c1N [Example 79, (R)-1'-(5-Amino-1-(2-methoxyphenyl)-1H-pyrazole-4-carbonyl)-6-chloro-5-fluorospiro[benzo[d][1,3]oxazine-4,3'-piperidin]-2(1H)-one]
